Key:
Format in all cases: cell-based
Caki-1 = assay: Cancer cell panel, cell viability (resazurin): Renal, Caki-1; details: Caki-1 (Renal), 72 hours; labelled drug combined with Example 3
BT-20 = assay: Cancer cell panel, cell viability (resazurin): Breast, BT-20; details: BT-20 (Breast), 72 hours; labelled drug combined with Example 3
DLD-1 = assay: Cancer cell panel, cell viability (resazurin): Colon, DLD-1; details: DLD-1 (Colon), 72 hours; labelled drug combined with Example 3
SK-MEL-3 = assay: Cancer cell panel, cell viability (resazurin): Melanoma, SK-MEL-3; details: SK-MEL-3 (Melanoma), 72 hours; labelled drug combined with Example 3
Daudi = assay: Cancer cell panel, cell viability (resazurin): Burkitt's Lymphoma, Daudi; details: 72 hours, labelled drug combined with Example 3
A375 = assay: Cancer cell panel, cell viability (resazurin): Melanoma, A375; details: 72 hours, labelled drug combined with Example 3
MOLT4 = assay: Cancer cell panel, cell viability (resazurin): Leukemia, MOLT4; details: 72 hours, labelled drug combined with Example 3
Experimental: (§1) Cells were plated in 96-well plates and treated for 72 hours with a serially diluted CK2 inhibitor or anti-cancer drug or their combination. The suspension cell lines were treated right after plating, while the adherent cells were allowed to attach overnight prior to the start of the treatment.
(§2) Cell viability was determined by adding resazurin to cell cultures and measuring fluorescence with a plate reader. Relative cell viability was calculated by dividing the cell viability signal from a test sample by that of a non-treated control. […] Bliss Independence and Highest Single Agent models were used to determine if there is synergy, additivity or antagonism between the CK2 inhibitor and an anti-cancer drug.

A2780 = assay: Cancer cell panel, cell viability (resazurin): Ovarian, A2780; details: 72 hours, labelled drug combined with Example 3
Caov-3 = assay: Cancer cell panel, cell viability (resazurin): Ovarian, Caov-3; details: Caov-3 (Ovarian), 72 hours; labelled drug combined with Example 3
MDA-MB-157 = assay: Cancer cell panel, cell viability (resazurin): Breast, MDA-MB-157; details: MDA-MB-157 (Breast), 72 hours; labelled drug combined with Example 3
Experimental: as §1, §2

HCT116 = assay: Cancer cell panel, cell viability (resazurin): Colon, HCT116; details: 72 hours, labelled drug combined with Example 3
Experimental: as §1, §2

SkBr-3 = assay: Cancer cell panel, cell viability (resazurin): Breast, SkBr-3; details: SkBr-3 (Breast), 72 hours; labelled drug combined with Example 3
Panc-1 = assay: Cancer cell panel, cell viability (resazurin): Pancreatic, Panc-1; details: Panc-1 (Pancreatic), 72 hours; labelled drug combined with Example 3
Experimental: as §1, §2

H1975 = assay: Cancer cell panel, cell viability (resazurin): NSCLC, H1975; details: 72 hours, labelled drug combined with Example 3
H460 = assay: Cancer cell panel, cell viability (resazurin): NSCLC, H460; details: 72 hours, labelled drug combined with Example 3
Experimental: as §1, §2

RPMI8226 = assay: Cancer cell panel, cell viability (resazurin): multiple myeloma, RPMI8226; details: 72 hours, labelled drug combined with Example 3
Experimental: as §1, §2

LoVo = assay: Cancer cell panel, cell viability (resazurin): Colon, LoVo; details: 72 hours, labelled drug combined with Example 3
H23 = assay: Cancer cell panel, cell viability (resazurin): NSCLC, H23; details: 72 hours, labelled drug combined with Example 3
BT-474 = assay: Cancer cell panel, cell viability (resazurin): Breast, BT-474; details: BT-474 (Breast), 72 hours; labelled drug combined with Example 3
T47D = assay: Cancer cell panel, cell viability (resazurin): Breast, T47D; details: 72 hours, labelled drug combined with Example 3
SKOV-3 = assay: Cancer cell panel, cell viability (resazurin): Ovarian, SKOV-3; details: SKOV-3 (Ovarian), 72 hours; labelled drug combined with Example 3
K562 = assay: Cancer cell panel, cell viability (resazurin): Leukemia, K562; details: 72 hours, labelled drug combined with Example 3
Experimental: as §1, §2

HL60 = assay: Cancer cell panel, cell viability (resazurin): Leukemia, HL60; details: 72 hours, labelled drug combined with Example 3
MDA-MB-231 = assay: Cancer cell panel, cell viability (resazurin): Breast, MDA-MB-231; details: MDA-MB-231 (Breast), 72 hours; labelled drug combined with Example 3
Colo205 = assay: Cancer cell panel, cell viability (resazurin): Colon, Colo205; details: 72 hours, labelled drug combined with Example 3
ZR-75-1 = assay: Cancer cell panel, cell viability (resazurin): Breast, ZR-75-1; details: ZR-75-1 (Breast), 72 hours; labelled drug combined with Example 3
Experimental: as §1, §2

EOL-1 = assay: Cancer cell panel, cell viability (resazurin): Leukemia, EOL-1; details: EOL-1 (Leukemia), 72 hours; labelled drug combined with Example 3
Experimental: as §1, §2

BxPC3 = assay: Cancer cell panel, cell viability (resazurin): Pancreatic, BxPC3; details: 72 hours, labelled drug combined with Example 3
Experimental: as §1, §2

Mia-Paca-2 = assay: Cancer cell panel, cell viability (resazurin): Pancreatic, Mia-Paca-2; details: Mia-Paca-2 (Pancreatic), 72 hours; labelled drug combined with Example 3
Raji = assay: Cancer cell panel, cell viability (resazurin): Burkitt's Lymphoma, Raji; details: 72 hours, labelled drug combined with Example 3
H2122 = assay: Cancer cell panel, cell viability (resazurin): NSCLC, H2122; details: 72 hours, labelled drug combined with Example 3
Experimental: as §1, §2

MDA-MB-453 = assay: Cancer cell panel, cell viability (resazurin): Breast, MDA-MB-453; details: MDA-MB-453 (Breast), 72 hours; labelled drug combined with Example 3
SK-MEL-24 = assay: Cancer cell panel, cell viability (resazurin): Melanoma, SK-MEL-24; details: SK-MEL-24 (Melanoma), 72 hours; labelled drug combined with Example 3
PC3 = assay: Cancer cell panel, cell viability (resazurin): Prostate, PC3; details: 72 hours, labelled drug combined with Example 3
H1299 = assay: Cancer cell panel, cell viability (resazurin): NSCLC, H1299; details: 72 hours, labelled drug combined with Example 3
OVCAR-3 = assay: Cancer cell panel, cell viability (resazurin): Ovarian, OVCAR-3; details: OVCAR-3 (Ovarian), 72 hours; labelled drug combined with Example 3
ACHN = assay: Cancer cell panel, cell viability (resazurin): Renal, ACHN; details: 72 hours, labelled drug combined with Example 3
WM-115 = assay: Cancer cell panel, cell viability (resazurin): Melanoma, WM-115; details: WM-115 (Melanoma), 72 hours; labelled drug combined with Example 3
Experimental: as §1, §2

COc1cccc2c1C(=O)c1c(O)c3c(c(O)c1C2=O)C[C@@](O)(C(=O)CO)C[C@@H]3O[C@H]1C[C@H](N)[C@H](O)[C@H](C)O1 [Doxorubicin, doxorubicin]
synergy, additivity or antagonism of the combination of Example 3 with the anti-cancer drug (Caki-1): + (Additive relative to each agent alone (CI = 0.9-1 by Bliss Independence Model and <0.9 by Highest Single Agent Model)) | synergy, additivity or antagonism of the combination of Example 3 with the anti-cancer drug (BT-20): + + (Slight synergy relative to each agent alone (CI = 0.75-0.9 by Bliss Independence Model)) | synergy, additivity or antagonism of the combination of Example 3 with the anti-cancer drug (DLD-1): + + (Slight synergy relative to each agent alone (CI = 0.75-0.9 by Bliss Independence Model)) | synergy, additivity or antagonism of the combination of Example 3 with the anti-cancer drug (SK-MEL-3): + + (Slight synergy relative to each agent alone (CI = 0.75-0.9 by Bliss Independence Model)) | synergy, additivity or antagonism of the combination of Example 3 with the anti-cancer drug (Daudi): + (Additive relative to each agent alone (CI = 0.9-1 by Bliss Independence Model and <0.9 by Highest Single Agent Model)) | synergy, additivity or antagonism of the combination of Example 3 with the anti-cancer drug (A375): + (Additive relative to each agent alone (CI = 0.9-1 by Bliss Independence Model and <0.9 by Highest Single Agent Model)) | synergy, additivity or antagonism of the combination of Example 3 with the anti-cancer drug (MOLT4): + + + (Synergy relative to each agent alone (CI = 0.4-0.74 by Bliss Independence Model)) | synergy, additivity or antagonism of the combination of Example 3 with the anti-cancer drug (A2780): + (Additive relative to each agent alone (CI = 0.9-1 by Bliss Independence Model and <0.9 by Highest Single Agent Model)) | synergy, additivity or antagonism of the combination of Example 3 with the anti-cancer drug (Caov-3): + (Additive relative to each agent alone (CI = 0.9-1 by Bliss Independence Model and <0.9 by Highest Single Agent Model)) | synergy, additivity or antagonism of the combination of Example 3 with the anti-cancer drug (MDA-MB-157): + + + (Synergy relative to each agent alone (CI = 0.4-0.74 by Bliss Independence Model)) | synergy, additivity or antagonism of the combination of Example 3 with the anti-cancer drug (HCT116): + + (Slight synergy relative to each agent alone (CI = 0.75-0.9 by Bliss Independence Model)) | synergy, additivity or antagonism of the combination of Example 3 with the anti-cancer drug (SkBr-3): + (Additive relative to each agent alone (CI = 0.9-1 by Bliss Independence Model and <0.9 by Highest Single Agent Model)) | synergy, additivity or antagonism of the combination of Example 3 with the anti-cancer drug (Panc-1): + + (Slight synergy relative to each agent alone (CI = 0.75-0.9 by Bliss Independence Model)) | synergy, additivity or antagonism of the combination of Example 3 with the anti-cancer drug (H1975): + (Additive relative to each agent alone (CI = 0.9-1 by Bliss Independence Model and <0.9 by Highest Single Agent Model)) | synergy, additivity or antagonism of the combination of Example 3 with the anti-cancer drug (H460): + + (Slight synergy relative to each agent alone (CI = 0.75-0.9 by Bliss Independence Model)) | synergy, additivity or antagonism of the combination of Example 3 with the anti-cancer drug (RPMI8226): + + + (Synergy relative to each agent alone (CI = 0.4-0.74 by Bliss Independence Model)) | synergy, additivity or antagonism of the combination of Example 3 with the anti-cancer drug (LoVo): + (Additive relative to each agent alone (CI = 0.9-1 by Bliss Independence Model and <0.9 by Highest Single Agent Model)) | synergy, additivity or antagonism of the combination of Example 3 with the anti-cancer drug (H23): + + (Slight synergy relative to each agent alone (CI = 0.75-0.9 by Bliss Independence Model)) | synergy, additivity or antagonism of the combination of Example 3 with the anti-cancer drug (BT-474): + + (Slight synergy relative to each agent alone (CI = 0.75-0.9 by Bliss Independence Model)) | synergy, additivity or antagonism of the combination of Example 3 with the anti-cancer drug (T47D): + (Additive relative to each agent alone (CI = 0.9-1 by Bliss Independence Model and <0.9 by Highest Single Agent Model)) | synergy, additivity or antagonism of the combination of Example 3 with the anti-cancer drug (SKOV-3): + (Additive relative to each agent alone (CI = 0.9-1 by Bliss Independence Model and <0.9 by Highest Single Agent Model)) | synergy, additivity or antagonism of the combination of Example 3 with the anti-cancer drug (K562): + (Additive relative to each agent alone (CI = 0.9-1 by Bliss Independence Model and <0.9 by Highest Single Agent Model)) | synergy, additivity or antagonism of the combination of Example 3 with the anti-cancer drug (HL60): + (Additive relative to each agent alone (CI = 0.9-1 by Bliss Independence Model and <0.9 by Highest Single Agent Model)) | synergy, additivity or antagonism of the combination of Example 3 with the anti-cancer drug (MDA-MB-231): + (Additive relative to each agent alone (CI = 0.9-1 by Bliss Independence Model and <0.9 by Highest Single Agent Model)) | synergy, additivity or antagonism of the combination of Example 3 with the anti-cancer drug (Colo205): + + (Slight synergy relative to each agent alone (CI = 0.75-0.9 by Bliss Independence Model)) | synergy, additivity or antagonism of the combination of Example 3 with the anti-cancer drug (ZR-75-1): + + (Slight synergy relative to each agent alone (CI = 0.75-0.9 by Bliss Independence Model)) | synergy, additivity or antagonism of the combination of Example 3 with the anti-cancer drug (EOL-1): + + (Slight synergy relative to each agent alone (CI = 0.75-0.9 by Bliss Independence Model)) | synergy, additivity or antagonism of the combination of Example 3 with the anti-cancer drug (BxPC3): + + (Slight synergy relative to each agent alone (CI = 0.75-0.9 by Bliss Independence Model)) | synergy, additivity or antagonism of the combination of Example 3 with the anti-cancer drug (Mia-Paca-2): + (Additive relative to each agent alone (CI = 0.9-1 by Bliss Independence Model and <0.9 by Highest Single Agent Model)) | synergy, additivity or antagonism of the combination of Example 3 with the anti-cancer drug (Raji): + + (Slight synergy relative to each agent alone (CI = 0.75-0.9 by Bliss Independence Model)) | synergy, additivity or antagonism of the combination of Example 3 with the anti-cancer drug (H2122): + + (Slight synergy relative to each agent alone (CI = 0.75-0.9 by Bliss Independence Model)) | synergy, additivity or antagonism of the combination of Example 3 with the anti-cancer drug (MDA-MB-453): + + + (Synergy relative to each agent alone (CI = 0.4-0.74 by Bliss Independence Model)) | synergy, additivity or antagonism of the combination of Example 3 with the anti-cancer drug (SK-MEL-24): + (Additive relative to each agent alone (CI = 0.9-1 by Bliss Independence Model and <0.9 by Highest Single Agent Model)) | synergy, additivity or antagonism of the combination of Example 3 with the anti-cancer drug (PC3): + (Additive relative to each agent alone (CI = 0.9-1 by Bliss Independence Model and <0.9 by Highest Single Agent Model)) | synergy, additivity or antagonism of the combination of Example 3 with the anti-cancer drug (H1299): + (Additive relative to each agent alone (CI = 0.9-1 by Bliss Independence Model and <0.9 by Highest Single Agent Model)) | synergy, additivity or antagonism of the combination of Example 3 with the anti-cancer drug (OVCAR-3): + + (Slight synergy relative to each agent alone (CI = 0.75-0.9 by Bliss Independence Model)) | synergy, additivity or antagonism of the combination of Example 3 with the anti-cancer drug (ACHN): + (Additive relative to each agent alone (CI = 0.9-1 by Bliss Independence Model and <0.9 by Highest Single Agent Model)) | synergy, additivity or antagonism of the combination of Example 3 with the anti-cancer drug (WM-115): + + + (Synergy relative to each agent alone (CI = 0.4-0.74 by Bliss Independence Model))
